Experiments:
[1] = biological target: Mitogen-activated protein kinase 1 (Homo sapiens, UniProt P28482); assay: DRUGMATRIX: Protein Serine/Threonine Kinase, ERK2 enzyme inhibition (substrate: Myelin Basic Protein); design: species or system Escherichia coli; conditions: Not Active = under 50% inhibition at 10 µM
Progesterone receptor = biological target: T1, Progesterone receptor (Bos taurus, UniProt Q690N0); assay: DRUGMATRIX: Progesterone radioligand binding (ligand: [3H] R-5020); format: tissue-based, Uterus; conditions: Not Active = under 50% inhibition at 10 µM
T1 sequence (Q690N0 whole entry): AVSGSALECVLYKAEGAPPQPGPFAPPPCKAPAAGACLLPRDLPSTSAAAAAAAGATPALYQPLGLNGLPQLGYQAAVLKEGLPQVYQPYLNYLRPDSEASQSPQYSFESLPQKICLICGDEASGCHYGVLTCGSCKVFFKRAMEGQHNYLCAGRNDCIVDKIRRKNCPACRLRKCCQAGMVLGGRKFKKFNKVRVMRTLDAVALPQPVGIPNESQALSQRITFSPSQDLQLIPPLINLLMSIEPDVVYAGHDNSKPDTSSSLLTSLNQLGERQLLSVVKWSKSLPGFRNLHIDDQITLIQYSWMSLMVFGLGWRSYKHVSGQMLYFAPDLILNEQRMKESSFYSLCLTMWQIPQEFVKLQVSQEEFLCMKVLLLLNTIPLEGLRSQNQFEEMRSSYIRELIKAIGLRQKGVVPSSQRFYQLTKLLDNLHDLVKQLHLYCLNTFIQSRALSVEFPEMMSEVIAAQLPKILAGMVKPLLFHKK

[2] = biological target: T2, Polyunsaturated fatty acid lipoxygenase ALOX15 (Oryctolagus cuniculus, UniProt P12530); assay: biochemical; format: tissue-based, Reticulocytes; conditions: reticulocytes;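 further: inhibition of 15-lipoxygenase enzyme activity measured with linoleic acid as the substrate; in other assays of this panel Not Active means under 50% inhibition at 10 µM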
T2 sequence (P12530 whole entry): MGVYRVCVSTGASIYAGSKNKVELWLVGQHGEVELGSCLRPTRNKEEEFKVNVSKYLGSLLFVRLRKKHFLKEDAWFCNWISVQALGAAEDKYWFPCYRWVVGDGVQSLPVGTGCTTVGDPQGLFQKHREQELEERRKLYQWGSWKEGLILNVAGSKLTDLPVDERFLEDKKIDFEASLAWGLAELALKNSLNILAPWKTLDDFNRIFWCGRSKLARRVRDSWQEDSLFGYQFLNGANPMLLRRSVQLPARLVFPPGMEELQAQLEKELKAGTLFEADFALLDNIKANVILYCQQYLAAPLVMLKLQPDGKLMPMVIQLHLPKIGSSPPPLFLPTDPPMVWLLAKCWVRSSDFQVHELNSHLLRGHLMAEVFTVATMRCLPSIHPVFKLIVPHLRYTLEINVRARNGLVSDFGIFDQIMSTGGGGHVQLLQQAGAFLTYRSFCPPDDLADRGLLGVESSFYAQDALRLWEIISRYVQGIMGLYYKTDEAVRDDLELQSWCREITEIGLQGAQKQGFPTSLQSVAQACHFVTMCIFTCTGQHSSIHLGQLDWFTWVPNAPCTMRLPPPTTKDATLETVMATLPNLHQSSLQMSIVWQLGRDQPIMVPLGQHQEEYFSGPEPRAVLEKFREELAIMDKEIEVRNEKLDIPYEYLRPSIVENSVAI

[3] = biological target: T3, Cysteinyl leukotriene receptor 1 (Homo sapiens, UniProt Q9Y271); format: cell membranes, Membrane; conditions: cho-k1; further: in other assays of this panel Not Active means under 50% inhibition at 10 µM
T3 sequence (Q9Y271 whole entry): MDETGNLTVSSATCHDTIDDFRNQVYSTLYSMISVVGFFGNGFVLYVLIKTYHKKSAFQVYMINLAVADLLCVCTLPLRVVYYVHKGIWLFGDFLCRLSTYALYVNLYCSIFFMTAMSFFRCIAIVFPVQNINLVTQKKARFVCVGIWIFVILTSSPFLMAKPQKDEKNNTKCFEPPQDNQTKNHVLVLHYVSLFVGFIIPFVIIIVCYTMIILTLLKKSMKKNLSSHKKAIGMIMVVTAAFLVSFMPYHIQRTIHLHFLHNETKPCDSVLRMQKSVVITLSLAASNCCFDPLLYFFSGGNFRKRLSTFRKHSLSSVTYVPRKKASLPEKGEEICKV

[4] = DRUGMATRIX: Calcium Channel Type L, Dihydropyridine radioligand binding (ligand: [3H] Nitrendipine); format: cell membranes, Rattus norvegicus, Wistar, Cerebral cortex, Membrane; conditions: Not Active = under 50% inhibition at 10 µM
[5] = biological target: C-C chemokine receptor type 2 (Homo sapiens, UniProt P41597); format: cell membranes, CHO-K1, Membrane; conditions: cho-k1; further: in other assays of this panel Not Active means under 50% inhibition at 10 µM
Adenosine receptor A3 = biological target: T4, Adenosine receptor A3 (Homo sapiens, UniProt P0DMS8); format: cell membranes, CHO-K1, Membrane; conditions: cho-k1;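 further: radioligand binding assay with AB-MECA serving as the labeled ligand; in other assays of this panel Not Active means under 50% inhibition at 10 µM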
T4 sequence (P0DMS8 whole entry): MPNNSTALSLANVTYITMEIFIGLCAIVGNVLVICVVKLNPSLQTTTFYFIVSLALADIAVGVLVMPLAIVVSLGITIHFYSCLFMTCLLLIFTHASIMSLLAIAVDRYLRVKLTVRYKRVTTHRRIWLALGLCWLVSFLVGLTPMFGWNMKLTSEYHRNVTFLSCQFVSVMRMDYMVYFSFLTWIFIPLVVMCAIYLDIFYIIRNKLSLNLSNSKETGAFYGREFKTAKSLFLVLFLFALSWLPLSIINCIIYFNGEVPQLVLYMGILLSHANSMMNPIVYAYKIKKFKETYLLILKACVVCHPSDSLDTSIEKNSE

Sequence of Mitogen-activated protein kinase 1 (P28482 whole entry): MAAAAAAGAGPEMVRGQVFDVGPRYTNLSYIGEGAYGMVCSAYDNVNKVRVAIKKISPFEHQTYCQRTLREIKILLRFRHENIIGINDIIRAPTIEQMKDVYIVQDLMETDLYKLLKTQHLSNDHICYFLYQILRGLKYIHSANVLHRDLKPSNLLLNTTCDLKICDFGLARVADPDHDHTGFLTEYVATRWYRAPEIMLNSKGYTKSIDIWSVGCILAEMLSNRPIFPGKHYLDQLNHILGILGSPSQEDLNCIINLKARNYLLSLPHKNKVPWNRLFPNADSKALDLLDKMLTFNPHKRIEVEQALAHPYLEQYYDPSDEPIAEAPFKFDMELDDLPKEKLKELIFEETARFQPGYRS
Sequence of C-C chemokine receptor type 2 (P41597 whole entry): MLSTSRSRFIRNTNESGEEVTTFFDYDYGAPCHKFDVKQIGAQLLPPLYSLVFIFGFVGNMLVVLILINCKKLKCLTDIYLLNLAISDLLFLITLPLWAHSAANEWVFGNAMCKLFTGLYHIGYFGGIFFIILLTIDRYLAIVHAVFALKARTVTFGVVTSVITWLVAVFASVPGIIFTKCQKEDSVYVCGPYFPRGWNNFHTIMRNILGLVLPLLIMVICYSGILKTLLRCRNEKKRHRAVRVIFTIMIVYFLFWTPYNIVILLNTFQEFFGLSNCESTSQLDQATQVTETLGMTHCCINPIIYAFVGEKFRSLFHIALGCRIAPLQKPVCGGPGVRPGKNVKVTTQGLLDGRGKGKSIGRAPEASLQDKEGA

Molecule | IC50 [1] | IC50 (Progesterone receptor) | IC50 [2] | IC50 [3] | IC50 [4] | Ki [4] | IC50 [5] | IC50 (Adenosine receptor A3) | Ki [1] | Ki (Progesterone receptor) | Ki [2] | Ki [3] | Ki [5] | Ki (Adenosine receptor A3) | IC50 ([1]; read-out: IC50) [µM]
CCCc1nn(C)c2c(=O)[nH]c(-c3cc(S(=O)(=O)N4CCN(C)CC4)ccc3OCC)nc12 | Not Active | Not Active | Not Active | Not Active | Not Active | Not Active | Not Active | Not Active | – | – | – | – | – | – | –
CN[C@@H]1[C@H](O)[C@H](NC)[C@H]2O[C@@]3(O)C(=O)C[C@@H](C)O[C@H]3O[C@@H]2[C@H]1O [SPECTINOMYCIN] | Not Active | Not Active | Not Active | Not Active | Not Active | Not Active | Not Active | Not Active | – | – | – | – | – | – | –
CC(C)(C)NC[C@H](O)COc1nsnc1N1CCOCC1 [TIMOLOL] | Not Active | Not Active | Not Active | Not Active | Not Active | Not Active | Not Active | Not Active | – | – | – | – | – | – | –
O=P(O)(O)C(O)(Cc1cccnc1)P(=O)(O)O [RISEDRONIC ACID] | Not Active | Not Active | Not Active | Not Active | Not Active | Not Active | Not Active | Not Active | – | – | – | – | – | – | –
COc1ccc(/C=C/C(=O)Nc2ccccc2C(=O)O)cc1OC | Not Active | Not Active | Not Active | Not Active | Not Active | Not Active | Not Active | Not Active | – | – | – | – | – | – | –
CCOC(N)=O | Not Active | Not Active | Not Active | Not Active | Not Active | Not Active | Not Active | Not Active | – | – | – | – | – | – | –
C#CCN(C)[C@H](C)Cc1ccccc1 [SELEGILINE] | Not Active | Not Active | Not Active | Not Active | Not Active | Not Active | Not Active | Not Active | – | – | – | – | – | – | –
Nc1ccc(S(=O)(=O)Nc2ncccn2)cc1 [SULFADIAZINE] | Not Active | Not Active | Not Active | Not Active | Not Active | Not Active | Not Active | Not Active | – | – | – | – | – | – | –
C[C@@H]1C[C@H]2[C@@H]3CCC4=CC(=O)C=C[C@]4(C)C3=CC[C@]2(C)[C@H]1C(=O)CN1CCN(c2cc(N3CCCC3)nc(N3CCCC3)n2)CC1 [TIRILAZAD] | Not Active | Not Active | Not Active | Not Active | Not Active | Not Active | Not Active | Not Active | – | – | – | – | – | – | –
COc1ncnc(NS(=O)(=O)c2ccc(N)cc2)c1OC [SULFADOXINE] | Not Active | Not Active | Not Active | Not Active | Not Active | Not Active | Not Active | Not Active | – | – | – | – | – | – | –
STANNOUS FLUORIDE | Not Active | Not Active | Not Active | Not Active | Not Active | Not Active | Not Active | Not Active | Not Active | Not Active | Not Active | Not Active | Not Active | Not Active | –
CC1=C(CC(=O)O)c2cc(F)ccc2/C1=C\c1ccc(S(C)(=O)=O)cc1 [EXISULIND] | – | Not Active | Not Active | Not Active | Not Active | Not Active | Not Active | Not Active | – | – | – | – | – | – | 13.8
NC[C@H]1O[C@H](O[C@H]2[C@H](O)[C@@H](O[C@H]3O[C@H](CO)[C@@H](O)[C@H](N)[C@H]3O)[C@H](N)C[C@@H]2N)[C@H](N)C[C@@H]1O [TOBRAMYCIN] | Not Active | Not Active | Not Active | Not Active | Not Active | Not Active | Not Active | Not Active | – | – | – | – | – | – | –
O=C(O)C(Cl)(Cl)Cl [TRICHLOROACETIC ACID] | Not Active | Not Active | Not Active | Not Active | Not Active | Not Active | Not Active | Not Active | – | – | – | – | – | – | –
